For one experiment, the system named is Aspergillus flavus. The experiment in a line: Antifungal activity against Aspergillus flavus NRRL-980 after 72 hrs by broth microdilution method. The format is functional. Particulars: NRRL-980, 72 h. In general terms: Broth dilution looks for growth in wells or tubes with falling amounts of substance.
Experiment [1] in a line: Cytotoxicity against mouse NIH/3T3 cells after 24 hrs by XTT assay. The format is cell-based. Particulars: NIH3T3, 24 h. A general note: Tetrazolium assays rely on reduction of a dye to a coloured formazan, in cell work by metabolically active cells.
The next experiment deals with A549. The experiment is described as follows: Cytotoxicity against human A549 cells after 24 hrs by XTT assay. The format is functional, cell-based. Particulars: A549, 24 h.
For a further experiment, the system named is Nakaseomyces glabratus. The experiment in a line: Antifungal activity against clinical isolate Candida glabrata after 48 hrs by broth microdilution method. The format is functional.
A further experiment deals with Candida parapsilosis. The experiment is described as follows: Antifungal activity against Candida parapsilosis NRLL Y-12696 after 48 hrs by broth microdilution method. The format is functional. Particulars: Lodderomyces parapsilosis, NRLL Y-12696, 48 h.
The test system of the next experiment is Candida albicans. The experiment is described as follows: Antifungal activity against Candida albicans ATCC-90028 after 48 hrs by broth microdilution method. The class given is functional. Particulars: ATCC-90028, 48 h.
The next experiment concerns Aspergillus parasiticus. The experiment is described as follows: Antifungal activity against Aspergillus parasiticus NRRL 465 after 72 hrs by broth microdilution method. The class given is functional. Conditions: NRRL 465, 72 h.
The subject of the next experiment is Fusarium solani. The experiment in a line: Antifungal activity against Fusarium solani NRRL-13414 after 72 hrs by broth microdilution method. The format is functional. Particulars: NRRL-13414, 72 h.
Another experiment has as its system [Candida] zeylanoides. The experiment is described as follows: Antifungal activity against Candida zeylanoides NRLL Y-1774 after 48 hrs by broth microdilution method. Particulars: Dujonia zeylanoides, NRLL Y-1774, 48 h. The format is functional.
The subject of another experiment is Aspergillus niger. The experiment is described as follows: Antifungal activity against Aspergillus niger ATCC-1094 after 72 hrs by broth microdilution method. The class given is functional. Conditions: ATCC-1094, 72 h.
The test system of another experiment is Candida tropicalis. The experiment is described as follows: Antifungal activity against Candida tropicalis NRLL Y-12968 after 48 hrs by broth microdilution method. The format is functional. Conditions: NRLL Y-12968, 48 h.
The subject of a further experiment is Pichia kudriavzevii. The experiment is described as follows: Antifungal activity against Candida krusei NRLL Y-7179 after 48 hrs by broth microdilution method. The format is functional. Conditions: NRLL Y-7179, 48 h.

Structures are written as SMILES. In brackets after ≈: the same amount, converted by molar mass. Bounds are passed on as bounds.

Take `Fc1ccc(/C=N/NC(=S)Nc2cccc3ccccc23)cc1F`: the MIC with Aspergillus flavus, against Nakaseomyces glabratus, against Candida parapsilosis, against Candida albicans, with Aspergillus parasiticus and against Fusarium solani was 250 µg/mL (≈ 732 µM) in each case. For the same compound, the minimum inhibitory concentration (MIC) (in [Candida] zeylanoides; in the experiment with Aspergillus niger; against Candida tropicalis; in the experiment on Pichia kudriavzevii) was 250 µg/mL (≈ 732 µM) throughout. For the same compound, the values for the IC50 (in experiment [1]; with A549) were > 500 µg/mL and 125 µg/mL (≈ 366 µM), respectively.

In the case of `Fc1ccc(/C=N/NC(=S)Nc2cccc3ccccc23)c(F)c1`, the MIC against Aspergillus flavus, against Nakaseomyces glabratus, against Candida parapsilosis, in the experiment with Candida albicans, against Aspergillus parasiticus and against Fusarium solani was 250 µg/mL (≈ 732 µM) in each case. Besides, the MIC (in experiment [Candida] zeylanoides; in the experiment on Aspergillus niger; against Candida tropicalis; in the experiment on Pichia kudriavzevii) was 250 µg/mL (≈ 732 µM) in each case. For the same compound, the IC50 in [1] was > 500 µg/mL; in the experiment on A549 it was 31.2 µg/mL (≈ 91.5 µM).

Regarding `Fc1cc(F)cc(/C=N/NC(=S)Nc2cccc3ccccc23)c1`, the MIC against Aspergillus flavus, with Nakaseomyces glabratus, with Candida parapsilosis, in the experiment on Candida albicans, against Aspergillus parasiticus and with Fusarium solani was 250 µg/mL (≈ 732 µM) each time. Moreover, the MIC (in [Candida] zeylanoides; in the experiment on Aspergillus niger; with Candida tropicalis; against Pichia kudriavzevii) was 250 µg/mL (≈ 732 µM) in each case. Moreover, the figures for the IC50 (in experiment [1]; with A549) were > 500 µg/mL and 500 µg/mL (≈ 1460 µM), respectively.

For the compound `Fc1cc(F)c(/C=N/NC(=S)Nc2cccc3ccccc23)c(F)c1`, the MIC in the experiment on Aspergillus flavus, with Nakaseomyces glabratus, against Candida parapsilosis, against Candida albicans, with Aspergillus parasiticus and in the experiment on Fusarium solani was 250 µg/mL (≈ 696 µM) throughout. Besides, the MIC (in experiment [Candida] zeylanoides; against Aspergillus niger; against Candida tropicalis; against Pichia kudriavzevii) was 250 µg/mL (≈ 696 µM) in each case. Further, the IC50 (in experiment [1]; in the experiment on A549) was > 500 µg/mL each time.

For the compound `Fc1cccc(Cl)c1/C=N/NC(=S)Nc1cccc2ccccc12`, the minimal inhibitory concentration (MIC) against Aspergillus flavus, with Nakaseomyces glabratus, in the experiment on Candida parapsilosis, in the experiment on Candida albicans, with Aspergillus parasiticus and against Fusarium solani was 250 µg/mL (≈ 699 µM) in each case. In addition, the MIC (in [Candida] zeylanoides; against Aspergillus niger; against Candida tropicalis; in the experiment with Pichia kudriavzevii) was 250 µg/mL (≈ 699 µM) throughout. In addition, the results for the IC50 (in experiment [1]; in the experiment with A549) were > 500 µg/mL and 125 µg/mL (≈ 349 µM), respectively.

For the compound `Fc1ccc(/C=N/NC(=S)Nc2cccc3ccccc23)cc1Cl`, the MIC against Aspergillus flavus, with Nakaseomyces glabratus, in the experiment with Candida parapsilosis, with Candida albicans, in the experiment on Aspergillus parasiticus and in the experiment with Fusarium solani was 250 µg/mL (≈ 699 µM) throughout. The MIC (in experiment [Candida] zeylanoides; against Aspergillus niger; with Candida tropicalis; in the experiment on Pichia kudriavzevii) was 250 µg/mL (≈ 699 µM) in each case. Moreover, the IC50 in experiment [1] was 500 µg/mL (≈ 1400 µM); in the experiment on A549, 51.3 µg/mL (≈ 143 µM).

With `Fc1ccc(Oc2ccc(/C=N/NC(=S)Nc3cccc4ccccc34)cc2)cc1`, the minimal inhibitory concentration (MIC) with Aspergillus flavus, with Nakaseomyces glabratus, with Candida parapsilosis, with Candida albicans, against Aspergillus parasiticus and against Fusarium solani was 250 µg/mL (≈ 602 µM) throughout. Further, the MIC (in [Candida] zeylanoides; against Aspergillus niger; against Candida tropicalis; against Pichia kudriavzevii) was 250 µg/mL (≈ 602 µM) each time. Moreover, the results for the IC50 (in [1]; in the experiment on A549) were > 500 µg/mL and 62.5 µg/mL (≈ 150 µM), respectively.

For `Fc1cccc(F)c1/C=N/NC(=S)Nc1cccc2ccccc12`, the MIC with Aspergillus flavus, against Nakaseomyces glabratus, against Candida parapsilosis, against Candida albicans, against Aspergillus parasiticus and in the experiment with Fusarium solani was 250 µg/mL (≈ 732 µM) each time. In addition, the MIC (in [Candida] zeylanoides; against Aspergillus niger; with Candida tropicalis; against Pichia kudriavzevii) was 250 µg/mL (≈ 732 µM) throughout. The IC50 in experiment [1] stood at 31.2 µg/mL (≈ 91.5 µM); with A549, 500 µg/mL (≈ 1460 µM).

As to `CC(=O)N1CCN(c2ccc(OCC3COC(Cn4ccnc4)(c4ccc(Cl)cc4Cl)O3)cc2)CC1` (stereo unspecified) [KETOCONAZOLE], the MIC worked out at 15.6 µg/mL (≈ 29.4 µM) with Aspergillus flavus; 62.5 µg/mL (≈ 118 µM) in the experiment with Nakaseomyces glabratus; 15.6 µg/mL (≈ 29.4 µM) in the experiment with Candida parapsilosis; 62.5 µg/mL (≈ 118 µM) in the experiment with Candida albicans; 7.81 µg/mL (≈ 14.7 µM) in the experiment on Aspergillus parasiticus; 62.5 µg/mL (≈ 118 µM) against Fusarium solani. For the same compound, the MIC is 250 µg/mL (≈ 470 µM) in experiment [Candida] zeylanoides, 31.2 µg/mL (≈ 58.8 µM) in the experiment on Aspergillus niger, 125 µg/mL (≈ 235 µM) with Candida tropicalis and 125 µg/mL (≈ 235 µM) with Pichia kudriavzevii.

For orientation: MIC means the lowest concentration found to suppress growth. One may read the IC50 as the point on the concentration scale where inhibition reaches its midpoint. Low values mean higher potency, high ones lower potency.

The values above are taken from ChEMBL document CHEMBL3758081, “Synthesis and biological evaluation of new naphthalene substituted thiosemicarbazone derivatives as potent antifungal and anticancer agents” (Eur J Med Chem, 2016).
